Here are results for 1 compound from US20240082273A1, “NEUROKININ INHIBITORS SUCH AS APREPITANT FOR TREATING NON SMALL CELL LUNG CARCINOMA OR BREAST CANCER WITHOUT MUTATIONS” (priority 2020, published 2024).

For series [1], the system named is H358. The experiment in a line: MTT proliferation, H358. The series is classed as cell-based, human. The following applies: 48 hours. The text has this:
(§1) EGFR, ALK and ROS1 are key molecular factors that may be used to determine pathological classification, prognosis, therapeutics and behaviour in patients with lung cancer. EGFR, ALK and ROS1 are biomarkers routinely analysed in the clinical practice of the management of patients with NSCLC. NSCLC with molecular profile EGFR-/ALK-/ROS1- presents a better response to treatment with the NK1 inhibitor aprepitant, compared to lung cancer with different profiles (in particular, EGFR+/ALK-/ROS1- and EGFR-/ALK+/ROS1-, in which EGFR and ALK respectively contain mutations relative to their wild type gene). Commercial lines of lung cancer were used as shown in Table 2 together with their molecular profile. The molecular profile of the cancer cell lines was determined by sequencing and can be consulted in the Cancer Cell Line Encyclopaedia database of public access available at the url: https://portals.broadinstitute.org/ccle All cells were cultured in wells under vendor-recommended conditions and exposed to different concentrations of aprepitant for 48 hours. In each case a group of wells of cells were used to which no treatment was applied and which were considered as controls. At 48 hours the number of cells was measured. Eight cell lines of human were used for the study of NK1 inhibitors (Table 3). All of them were maintained in culture in their respective culture media (Gibco,Thermo Fisher Scientific) supplemented with 10% foetal bovine serum (FBS) (Gibco, Thermo Fisher Scientific), 2 mM L-Glutamine (Gln) (Sigma-Aldrich, Merk), and […] and […] Gibco, Thermo Fisher Scientific) in a humidified incubator at 37° C. and 5% CO2. Cell culture media used are Dulbecco's Modified Eagle Medium (DMEM), and RPMI Medium 1640 (RPMI-1640). To measure cell viability, the cytotoxicity of drugs in culture was evaluated using the 3-(4,5-Dimethyl-2-thiazolyl)-2,5-diphenyl-2H-tetrazolium bromide (MTT) reduction assay. This assay assesses cell viability through the indirect measurement of the activity of reductases that convert yellow soluble MTT into purple insoluble formazan salts. As MTT can only be reduced when these enzymes are active, the reaction is used as an indicator of the cell metabolic competence and, therefore, of viability. A variable number of cells (depending on the cell line) were seeded in 96 multi-well plates and grown during 24 hours. The following day, the culture medium was aspirated and fresh culture medium with the drug dissolved was added to the wells. After 24 hours or 48 hours cell viability was measurement by adding 10 μl of a 5 mg/ml MTT solution (M5655; Sigma-Aldrich) and 100 μl of HCl 0.01M-SDS 10% solution 4 hours later. After 24 hours, the absorbance was measured at 595 nm, using a multi-well plate reader (iMark, Bio-rad). Each condition was tested 5 times, obtaining 5 values of absorbance. All sample measurements were corrected using the blank (culture medium without cells) mean absorbance value, and normalized to positive control to determinate relative cell viability for each condition at 24 and 48 hours.

Series [2] can be described thus: Xenograft mouse safety model (body weight, autopsy). It is filed as in vivo, C57BL/6J mice. As to the method: Fosaprepitant dimeglumine salt (CAS No 265121-04-8) was purchased from Selleck Chemicals and administered intraperitoneally at 30, 60 and 100 mg/kg dose, once a day. Fosaprepitant is a pro-drug available for parenteral administration that in the body, once administered, becomes aprepitant.
3LL cells (0.6×10^6 per mouse) or B16F10 cells (1×10^6 per mouse) were subcutaneously injected into the right flank of C57BL/6J mice (Charles River) with matrigel (Matrigel Membrane Matrix, Corning) at 50% v/v. Tumour growth was evaluated every 2/3 days. Animal vital parameters were monitored daily. When the tumours reached an average volume of 100-150 mm ^3, mice were randomized into cohorts of 6 animals each and treatments were administered for 7-9 days. Groups and regimens for each experiment are described in Table 1. Animals of the control group were dosed with equal volume of vehicle. Animals were euthanized according to institutional guidelines and tumour samples were excised. Tumours were snap-frozen in OCT medium (Sakura Tissue Tek) or fixed in PFA and embedded in paraffin. Several internal organs were also excised and fixed in PFA for future studies.

The subject of series [3] is H520. In words: MTT proliferation, H520. The series is classed as cell-based, human. The following applies: 48 hours.
From the text: as §1

For the compound `C[C@@H](O[C@H]1OCCN(Cc2nc(=O)[nH][nH]2)[C@H]1c1ccc(F)cc1)c1cc(C(F)(F)F)cc(C(F)(F)F)c1` [Aprepitant], the Mean proliferation amounted to 101.3 in series [1] (aprepitant 1 μM); 89.28 in series [1] (aprepitant 3 μM); 87.69 in series [1] (aprepitant 5 μM); 64.12 in series [1] (aprepitant 10 μM); 43.44 in series [1] (aprepitant 20 μM); 32.09 in series [1] (aprepitant 30 μM). Besides, the Mean proliferation is listed as 27.23 in series [1] (aprepitant 40 μM); 3.10 in series [1] (aprepitant 50 μM); 2.86 in series [1] (aprepitant 60 μM); 100.27 in series [3] (aprepitant 1 μM); 98.27 in series [3] (aprepitant 3 μM); 80.08 in series [3] (aprepitant 5 μM). The Mean proliferation in series [3] (aprepitant 10 μM) was 66.40; in series [3] (aprepitant 20 μM), 43.07; in series [3] (aprepitant 30 μM), 29.80; in series [3] (aprepitant 40 μM), 9.59; in series [3] (aprepitant 50 μM), 5.78; in series [3] (aprepitant 60 μM) it was −1.07. Moreover, in series [2] (all animals, 30, 60 and 100 mg/kg/day), the “autopsy, organs explored microscopically: signs of toxicity” value is listed as “no significant signs of toxicity”. For the same compound, in series [2] (mouse, in vivo, 100 mg/kg/day), the “safety (body weight, histological study of the main organs)” value is on record as “safe”.
